Measurements reported in paper PMC4841555, “Optimization of the All-D Peptide D3 for Aβ Oligomer Elimination” (PLoS ONE, 2016).
pEC50: −log10 of the molar value. Several values for one entry are separate records, joined by “and”; a condition that tells them apart may be missing. Identical values can stand only once. Non-standard residues stand in square brackets, D forms with d. Residues, ends and D or L forms follow the SMILES beside them.

How the values were obtained:
Aβ(1–42) [1] = molecular target: T1, Aβ(1–42) (Homo sapiens, UniProt P05067); assay: Aβ aggregation inhibition ELISA; assay type: biochemical; settings: 400 nM Aβ(1–42), 500 mM Tris pH 7.4, 23 h, 37°C, aggregate-specific ELISA, logistic fit, three independent experiments; read-out: EC50 of inhibition of Aβ aggregate formation
T1 construct: Aβ(1–42), N-terminally biotinylated Aβ(1–42) and FITC-Aβ(1–42) were purchased from Bachem; purchased Bachem (Heidelberg, Germany)
Experimental: Freshly dissolved monomeric Aβ(1–42) (400 nM in 500 mM Tris-buffer pH 7.4) was incubated with and without DB peptides in different concentrations (0.01, 0.05, 0.1, 0.5, 1, 5, 10, 50 and 100 μM for DB3 or half of the molar concentrations in case of DB3DB3) in a humidity chamber for 23 h at 37°C. The aggregation was analyzed by an enzyme-linked immunosorbent assay (ELISA). NP27 antibody in bicarbonate/carbonate buffer was used to coat the ELISA plate overnight. Then the plate was washed in PBS-Tween buffer (1x PBS + 0.05% Tween) and blocked for 2 h at room temperature with 5% casein buffer. After washing, Aβ aggregate solutions were added to the plate and incubated for 1 h at room temperature. The plate was washed again and bound Aβ aggregates were detected by biotinylated 6E10/HRP-avidin mediated immunoreaction (BioLegend, San Diego, CA USA) using TMB as detection reagent. […] Mean value and standard error were calculated from three independent experiments. EC50 was calculated by fitting the data to a logistic dose response function.
Fig 5 Inhibition of Aβ fibril formation and Aβ aggregation disassemble by DB3 and DB3DB3. A) Monomeric Aβ(1–42) (400 nM) was mixed with different concentrations of DB3 (0.01, 0.05, 0.1, 0.5, 1, 5, 10, 50, 100 μM) and the aggregation state of Aβ was analyzed using an Aβ aggregate specific ELISA. […] All data were determined in triplicate. […]

PC12 cells = assay: MTT cell viability assay; assay type: cell-based, rat; settings: 5 μM peptide without Aβ, 24 h
Experimental: Rat pheochromocytoma PC12 cells (Leibniz Institute DSMZ, Braunschweig, Germany) were cultivated in DMEM medium supplemented with 10% fetal bovine serum and 5% horse serum. 10,000 cells per well were seeded on collagen-coated 96 well plates (Gibco, Life technology, Carlsberg, USA) and incubated in a 95% humidified atmosphere with 5% CO2 at 37°C for 24 h. […] DB peptide was then added at different concentrations and incubated for further 40 min at 21°C and 600 rpm agitation before addition to the PC12 cells. […] Cell viability was then measured using the Cell proliferation Kit I (MTT) (Roche, Basel, Switzerland) according to the manufacturer’s instruction. The absorbance of the formazan product was determined by measuring at 570 nm after subtracting the absorption at 660 nm. For absorption measurements, a Polarstar Optima plate reader (BMG, Offenburg, Germany) was used. All results were normalized to cells that were treated with buffer only.
The cell viability assay was performed using PC12 cells in a MTT test. […] The absorption of buffer treated cells was set to 100% cell viability. […] The Mann-Whitney-U-test was used for statistical analysis. * p < 0.05; ** p < 0.01; *** p < 0.001.

[2] = molecular target: T2, preformed Aβ(1–42) aggregates (Homo sapiens, UniProt P05067); assay: Aβ aggregate disassembly ELISA; assay type: biochemical
T2 construct: Aβ(1–42), N-terminally biotinylated Aβ(1–42) and FITC-Aβ(1–42) were purchased from Bachem; purchased Bachem (Heidelberg, Germany)
Experimental: Freshly dissolved monomeric Aβ(1–42) (400 nM in 500 mM Tris-buffer pH 7.4) was incubated in a humidity chamber for 22 h at 37°C in order to preform Aβ(1–42) aggregates. These preformed aggregates were coincubated with D-peptide in different concentrations (0.01, 0.05, 0.1, 0.5, 1, 5, 10, 50, 100 μM for DB3 or with half of the molar concentrations in case of DB3DB3) for additional 22 h at 37°C. The content of Aβ aggregates was measured and evaluated in the same way as the aggregation inhibition ELISA.
Fig 5 Inhibition of Aβ fibril formation and Aβ aggregation disassemble by DB3 and DB3DB3. A) Monomeric Aβ(1–42) (400 nM) was mixed with different concentrations of DB3 (0.01, 0.05, 0.1, 0.5, 1, 5, 10, 50, 100 μM) and the aggregation state of Aβ was analyzed using an Aβ aggregate specific ELISA. For DB3DB3 half of the molar concentrations compared to DB3 were used. Aβ without DB3 and DB3DB3 addition was taken as control. For DB3 an EC50 of 6 μM was calculated using a logistic fit model. DB3DB3 inhibited the formation of Aβ fibrils more efficiently with an EC50 of 7 nM. B) The disassembly properties of DB3 and DB3DB3 were measured using an Aβ aggregation specific ELISA. Monomeric Aβ(1–42) (400 nM) was preincubated in order to form fibrils and mixed with nine different concentrations of DB3 (0.01, 0.05, 0.1, 0.5, 1, 5, 10, 50, 100 μM). For DB3DB3, the molar concentrations were half those used for DB3. […] DB3DB3 disassembled Aβ aggregates at the lowest concentration […]. Thus, the EC50 could not be determined, but is < 10 nM. All data were determined in triplicate. The Mann-Whitney-U-test was performed for statistical analysis. * p< 0.05; ** p < 0.01; *** p < 0.001
The Aβ aggregate disassembly ELISA was used to analyze the effect of DB3 and DB3DB3 on preformed Aβ aggregates (Fig 5B). […] The Aβ aggregates specific ELISA was used to quantify Aβ aggregates. […] The results of measured Aβ aggregates normalized to the Aβ control were plotted against the peptide concentration. The EC50 was calculated by a logarithmic dose response function.

Aβ(1–42) oligomers = molecular target: T3, Aβ(1–42) oligomers (Homo sapiens, UniProt P05067); assay: QIAD assay (Aβ oligomer elimination); assay type: biochemical; settings: 10 μM DB3DB3, 80 μM Aβ(1–42) preincubated 4.5 h, 40 min with peptide, density gradient centrifugation, RP-HPLC, triplicate
T3 construct: Aβ(1–42), N-terminally biotinylated Aβ(1–42) and FITC-Aβ(1–42) were purchased from Bachem; purchased Bachem (Heidelberg, Germany)
Experimental: The quantitative determination of interference with Aβ(1–42) aggregate size distribution (QIAD) was performed as described before. In brief, 80 μM Aβ(1–42) was incubated in 10 mM sodium phosphate buffer, pH 7.4 for 4.5 h at 22°C with 600 rpm agitation. Aβ(1–42) aggregation was continued for an additional 40 min with or without DB peptide. The obtained partial size distribution was analyzed by applying density gradient centrifugation. 100 μl of the incubated sample was placed on top of a gradient with 5 to 50% iodixanol (Optiprep, Axis-shield, Oslo, Norway) and separated at 259.000 x g for 3 h at 4°C using an ultracentrifuge (Optima MAX-XP, Beckman Coulter, Brea, USA). Fourteen fractions of 140 μl were taken from top to bottom. […] For quantification of the Aβ(1–42) amount in each fraction, reversed-phase high performance liquid chromatography (RP-HPLC) was performed using a Zorbax SB-300 C8 column (Agilent, Böblingen, Germany) connected to an Agilent 1260 Infinity system using 30% (v/v) acetonitrile with 0.1% (v/v) trifluoroacetic acid (TFA) as the mobile phase with a flow of 1 ml/min and a column temperature of 80°C. […] The UV absorption at 214 nm was measured. For quantification of the Aβ(1–42) amount, the area under the peak representing Aβ(1–42) was calculated and the molar concentration was determined using a calibration curve. […]

Aβ(1–42) [3] = molecular target: T1, Aβ(1–42); assay: Thioflavin T (ThT) fibril formation assay; assay type: biochemical; settings: 20 μM Aβ(1–42), 20 μM peptide (method: 31 μg/ml), 20 μM ThT, 10 mM sodium phosphate pH 7.4, 37°C, compared after 5 h with Aβ(1–42)-only control
Experimental: 20 μM Aβ(1–42) was mixed with 20 μM Thioflavin T (ThT) and 31 μg/ml DB3 or DB3DB3 in 10 mM sodium phosphate buffer, pH 7.4. The assay was performed using a non-binding 96 well plate (Greiner Bio-One, Frickenhausen, Germany). ThT fluorescence was measured every 15 min at λex = 440 nm and λem = 490 nm in a temperature-controlled plate reader (Polarstar Optima, BMG, Offenburg, Germany) at 37°C with 1 min agitation before every measurement. Each value was background corrected using the ThT fluorescence of a peptide solution without Aβ(1–42). To investigate the influence of DB1 to DB5 on Aβ fibril formation, a Thioflavin T (ThT) assay was performed. In an aqueous environment the benzothiazole dye has a low fluorescence. […] The emission at 490 nm is directly proportional to the quantity of amyloid fibrils. Fibril formation of Aβ can be followed in real time by measuring the ThT fluorescence. Therefore, the inhibitory effects of the D-peptides DB1 to DB5 and D3 were investigated by co-incubating these peptides with Aβ(1–42) and performing the ThT assay. Fluorescence emission data were compared after 5 h incubation, because after this period the Aβ(1–42) control (without added peptide) reached its fluorescence maximum. […] 20 μM Aβ(1–42) was mixed with 20 μM DB1 to DB5 or 10 μM DB3DB3 and the ThT fluorescence was monitored. Aβ(1–42) without peptide addition was taken as the control. The ThT fluorescence of all samples were compared after 5 h, where the control, Aβ(1–42) only, reached its maximum in fluorescence emission. The Mann-Whitney-U-test was used for statistical analysis. * p < 0.05; ** p < 0.01; *** p < 0.001.

transgenic mice = settings: ref [10], [15], [16], cited from earlier work
Description: We have previously selected the 12mer all-D-enantiomeric peptide D3 via mirror image phage display. In vitro, D3 binds to amyloid plaques, reduces Aβ aggregation to regular fibrils, eliminates Aβ oligomers and converts preformed fibrils into non-amyloidogenic, non-fibrillar, non-toxic aggregates. In vivo, the plaque load and cerebral inflammation of transgenic mice is reduced after injection of D3 into the brain and cognitive impairment of transgenic mice is improved after oral application. The original phage library, from which D3 was selected, coded ...

T1 sequence (P05067 672-713 limits assumed): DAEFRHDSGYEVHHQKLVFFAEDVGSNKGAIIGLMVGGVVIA
T2 sequence (P05067 672-713 limits assumed): as above
T3 sequence (P05067 672-713 limits assumed): as above

With `CC[C@@H](C)[C@@H](NC(=O)[C@H]1CCCN1C(=O)[C@H](N)CCCNC(=N)N)C(=O)N[C@@H](C(=O)N[C@H](CCCNC(=N)N)C(=O)N[C@H](CC(C)C)C(=O)N[C@H](CCCNC(=N)N)C(=O)N[C@@H](C(=O)N[C@H](Cc1c[nH]cn1)C(=O)N[C@H](CCC(N)=O)C(=O)N[C@H](CC(N)=O)C(=O)N[C@H](CCCNC(=N)N)C(=O)N[C@H](CCCNC(=N)N)C(=O)N1CCC[C@@H]1C(=O)N[C@@H](C(=O)N[C@@H](C(=O)N[C@H](CCCNC(=N)N)C(=O)N[C@H](CC(C)C)C(=O)N[C@H](CCCNC(=N)N)C(=O)N[C@@H](C(=O)N[C@H](Cc1c[nH]cn1)C(=O)N[C@H](CCC(N)=O)C(=O)N[C@H](CC(N)=O)C(=O)N[C@H](CCCNC(=N)N)C(N)=O)[C@H](C)O)[C@H](C)O)[C@H](C)CC)[C@H](C)O)[C@H](C)O` [DB3DB3] (H-[dR][dP][dI][dT][dR][dL][dR][dT][dH][dQ][dN][dR][dR][dP][dI][dT][dR][dL][dR][dT][dH][dQ][dN][dR]-NH2) as the molecule, how does the pEC50 (Aβ(1–42) [1]) read?
The pEC50 was 8.10 and 8.15.

And the “effect of peptide alone on PC12 cell viability” value (PC12 cells)?
Its value is “not toxic”.

And the “disassembly of the Aβ aggregates” value ([2]; 10 nM DB3DB3 added to 400 nM Aβ, compared to Aβ in the absence of peptide)?
The value was 80%.

And the pEC50 ([2]; 400 nM Aβ(1–42) preincubated 22 h at 37°C, then with peptide 22 h (24 h) at 37°C, ELISA, triplicate)?
Its pEC50 is over 8.00.

What about the “reduction of the content of Aβ oligomers” value (Aβ(1–42) oligomers) of the same molecule?
Its value is 82%.

With “RPITRLHTDRNR [DB1, all-D D3 derivative, C-terminally amidated]” as the molecule, how does the “inhibition of Aβ(1–42) fibril formation (ThT fluorescence)” value (“inhibition of Aβ(1–42) fibril formation” below) (Aβ(1–42) [3]) read?
Its value is 63%.

With “RPITRLQTHEQR [DB5, all-D D3 derivative, C-terminally amidated]” as the molecule, how does the “inhibition of Aβ(1–42) fibril formation” value (Aβ(1–42) [3]) read?
Its value is 76%.

For “RPITTLQTHQNR [DB2, all-D D3 derivative, C-terminally amidated]”, which “inhibition of Aβ(1–42) fibril formation” value (Aβ(1–42) [3]) is on record?
The value was 49%.

With “RPRTRLHTHRNR [D3, 12mer all-D-enantiomeric peptide selected via mirror image phage display, C-terminally amidated]” as the molecule, how does the “inhibition of Aβ(1–42) fibril formation” value (Aβ(1–42) [3]) read?
The value was 30%.

What about the “plaque load and cerebral inflammation of transgenic mice” value (transgenic mice; injection of D3 into the brain) of the same molecule?
The value was “reduced”.

What about the “cognitive impairment of transgenic mice” value (transgenic mice; oral application) of the same molecule?
Its value is “improved”.

With “RPRTRLRTHQNR [DB4, all-D D3 derivative, C-terminally amidated]” as the molecule, how does the “inhibition of Aβ(1–42) fibril formation” value (Aβ(1–42) [3]) read?
Its value is “no effect”.
